Experimental data from patent US7834242B2, “S-adenosyl-L-methionine synthetase promoter and its use in expression of transgenic genes in plants” (E. I. du Pont de Nemours and Company, priority 2003, dated 2010).

Assays:
[1] = system: soybean plants; experiment: Spray test for tolerance to SU herbicide; assay type: in vivo; details: 60 grams active ingredient per hectare
Protocol: Soybean plants, transformed with either pZSL13 or pZSL14, were tested for tolerance to SU herbicide. A spray solution was made containing 60 grams of Thifensulfuron-methyl active ingredient per hectare and 0.25% wt/wt of AL-2999 nonionic surfactant. Thifensulfuron-methyl has the chemical name, methyl 3-[[[[(4-methoxy-6-methyl-1,3,5-triazin-2-yl)amino]carbonyl]amino]sulfonyl]-2-thiophenecarboxylate, and is the active ingredient in the two DuPont sulfonylurea herbicides, HARMONY GT® and PINNACLE®. Either HARMONY GT® or PINNACLE® can be used as the source of this sulfonylurea for the spray test. AL-2999 is a nonionic surfactant, obtainable as ATPLUS UCL 1007® from Uniqema. This mixture was evenly sprayed onto the soybean plants at the 1st or 2nd trifoliate stage of development. After waiting approximately two weeks the results were scored. All wild-type plants (or plants lacking the SAMS:herbicide-resistant ALS transgene) were dead (negative control), all plants from commercially available STS® (Sulfonylurea Tolerant Soybean) seeds were alive (positive control), and plants containing the SAMS:herbicide-resistant ALS transgene from either pZSL13 or pZSL14 also survived. Consequently, either the 1.3-kb (SEQ ID NO:6) or the 2.1-kb (SEQ ID NO:14) fragment from the SAMS gene can drive expression of the mutant ALS gene at levels sufficient to provide tolerance to SU.

[2] = system: SAMS promoter; experiment: Induction of SAMS promoter activity by methionine (GUS activity of SAMS::GUS seedlings); assay type: in vivo, Arabidopsis
Protocol: (§1) To see if SAMS promoter is regulated by external methionine, the SAMS::GUS transgenic Arabidopsis seeds were germinated in the presence of either H2O, 1× Murashige and Skoog salt (GIBCO BRL), 0.01 mM methionine (Sigma), or 1 mM methionine. Ten days old seedlings from ten independent transgenic lines were analyzed for GUS activity according to the protocol described in Example 5.

[3] = system: Arabidopsis seeds
Protocol: as §1

[4] = system: transgenic Arabidopsis plants; experiment: Fluorometric GUS assay of SAMS::GUS transgenic plants; assay type: in vivo, Arabidopsis thaliana; details: developing seeds of SAMS::GUS Arabidopsis
Protocol: FIG. 5 depicts a fluorometric GUS expression assay of transgenic Arabidopsis plants harboring the SAMS::GUS expression cassette. Triple samples of flowers, leaves, stems, siliques coats, young seeds, medium seeds, old seeds, and dry seeds collected from SAMS::GUS transgenic Arabidopsis plants were assayed for GUS activity. The graph was generated by Microsoft Excel and the standard deviation is indicated by the upper part of each column.
The activity of the soybean SAMS promoter was tested by its ability to express the GUS reporter gene in transgenic Arabidopsis plants carrying the SAMS promoter::GUS::3′ Nos expression casstette. […]
The GUS activities of the transgenic Arabidopsis plants were further analyzed by a fluorometric assay. For fluorescence analysis, plant tissues were ground in microfuge tubes with extraction buffer, 50 mM phosphate buffer, pH 7.0, 10 mM EDTA, 0.1% Triton X-100, 0.1% N-lauroyl sarcosine, and 10 mM β-mercaptoethanol, to homogeneity. The samples were centrifuged at 14,000 rpm for 10 minutes, and aliquots of the supernatant were used to determine protein concentrations by the Bradford method (Bio-Rad, Hercules, Calif.) using 96 well microtiter plates read with a kinetic microplate reader (Molecular Devices, Sunnyvale, Calif.). […] Data were entered into a Microsoft Excel spread sheet and analyzed. […]

**Q.** Which “Plant survival after spray” value ([1]; plants containing SAMS:herbicide-resistant ALS transgene from pZSL13 or pZSL14, approximately two weeks) does the source give for COC(=O)c1sccc1S(=O)(=O)NC(=O)Nc1nc(C)nc(OC)n1 [Thifensulfuron-methyl, methyl 3-[[[[(4-methoxy-6-methyl-1,3,5-triazin-2-yl)amino]carbonyl]amino]sulfonyl]-2-thiophenecarboxylate] here?
**A.** survived

**Q.** And the “Plant survival after spray” value ([1]; plants from commercially available STS seeds, approximately two weeks)?
**A.** alive

**Q.** And the “Plant survival after spray” value ([1]; wild-type plants (lacking transgene), 0.25% AL-2999, scored after approximately two weeks)?
**A.** dead

**Q.** How did the “SAMS activity induced (GUS activity) compared to H2O treatment” value ([2]; 0.01 mM free methionine, ten days old seedlings, ten transgenic lines) turn out when CSCC[C@H](N)C(=O)O [methionine] was run?
**A.** more than two-fold

**Q.** And the “Induction effect of SAMS promoter” value ([2]; 1 mM methionine)?
**A.** less than that by 0.01 mM methionine

**Q.** What about the “Toxic effect on seedlings” value ([3]; 1 mM methionine) of the same molecule?
**A.** smaller sizes and shorter roots of the seedlings

**Q.** And the “Toxic effect on germination and survival” value ([3]; 10 mM free methionine)?
**A.** only a few Arabidopsis seeds were able to germinate and none survived

B1: SAMS promoter: soybean S-adenosyl-L-methionine synthetase promoter fragment, 1314 bp, SEQ ID NO:6 (nucleic acid)
DNA: TCTAGATCAAACTCACATCCAAACATAACATGGATATCTCCTTACCAATCATACTAATTATTTTGGGTTAAATATTAATCATTATTTTTAAGATATTAATTAAGAAATTAAAAGATTTTTTAAAAAAATGTATAAAATTATATTATTCATGATTTTTCATACATTTGATTTTGATAATAAATATATTTTTTTTAATTTCTTAAAAAATGTTGCAAGACACTTATTAGACATAGTCTTGTTCTGTTTACAAAAGCATTCATCATTTAATACATTAAAAAATATTTAATACTAACAGTAGAATCTTCTTGTGAGTGGTGTGGGAGTAGGCAACCTGGCATTGAAACGAGAGAAAGAGAGTCAGAACCAGAAGACAAATAAAAAGTATGCAACAAACAAATCAAAATCAAAGGGCAAAGGCTGGGGTTGGCTCAATTGGTTGCTACATTCAATTTTCAACTCAGTCAACGGTTGAGATTCACTCTGACTTCCCCAATCTAAGCCGCGGATGCAAACGGTTGAATCTAACCCACAATCCAATCTCGTTACTTAGGGGCTTTTCCGTCATTAACTCACCCCTGCCACCCGGTTTCCCTATAAATTGGAACTCAATGCTCCCCTCTAAACTCGTATCGCTTCAGAGTTGAGACCAAGACACACTCGTTCATATATCTCTCTGCTCTTCTCTTCTCTTCTACCTCTCAAGGTACTTTTCTTCTCCCTCTACCAAATCCTAGATTCCGTGGTTCAATTTCGGATCTTGCACTTCTGGTTTGCTTTGCCTTGCTTTTTCCTCAACTGGGTCCATCTAGGATCCATGTGAAACTCTACTCTTTCTTTAATATCTGCGGAATACGCGTTGGACTTTCAGATCTAGTCGAAATCATTTCATAATTGCCTTTCTTTCTTTTAGCTTATGAGAAATAAAATCATTTTTTTTTATTTCAAAATAAACCTTGGGCCTTGTGCTGACTGAGATGGGGTTTGGTGATTACAGAATTTTAGCGAATTTTGTAATTGTACTTGTTTGTCTGTAGTTTTGTTTTGTTTTCTTGTTTCTCATACATTCCTTAGGCTTCAATTTTATTCGAGTATAGGTCACAATAGGAATTCAAACTTTGAGCAGGGGAATTAATCCCTTCCTTCAAATCCAGTTTGTTTGTATATATGTTTAAAAAATGAAACTTTTGCTTTAAATTCTATTATAACTTTTTTTATGGCAAAAATTTTTGCATGTGTCTTTGCTCTCCTGTTGTAAATTTACTGTTTAGGTACTAACTCTAGGCTTGTTGTGCAGTTTTTGAAGTATAACCATGG
modifications: Glycine max
**Q.** For B1, which GUS specific activities [4] is on record?
**A.** 5-40 pmole 4-Mu (4-methylumbelliferone) per microgram protein per minute
